Consider 26 compounds from patent US20100249123A1, “NOVEL BENZAMIDE DERIVATIVES AS MODULATORS OF THE FOLLICLE STIMULATING HORMONE” (ADDEX PHARMA SA, priority 2007, published 2010).

Where only a bound is given, the exact number is not on record here.

What is called IC50 is the midpoint of a concentration-inhibition curve.

The target of this test is T1, rat follicle stimulating hormone receptor (rFSHR) (Rattus norvegicus, UniProt P20395).
T1 construct: expressed in transfected cells
T1 sequence (P20395 18-692): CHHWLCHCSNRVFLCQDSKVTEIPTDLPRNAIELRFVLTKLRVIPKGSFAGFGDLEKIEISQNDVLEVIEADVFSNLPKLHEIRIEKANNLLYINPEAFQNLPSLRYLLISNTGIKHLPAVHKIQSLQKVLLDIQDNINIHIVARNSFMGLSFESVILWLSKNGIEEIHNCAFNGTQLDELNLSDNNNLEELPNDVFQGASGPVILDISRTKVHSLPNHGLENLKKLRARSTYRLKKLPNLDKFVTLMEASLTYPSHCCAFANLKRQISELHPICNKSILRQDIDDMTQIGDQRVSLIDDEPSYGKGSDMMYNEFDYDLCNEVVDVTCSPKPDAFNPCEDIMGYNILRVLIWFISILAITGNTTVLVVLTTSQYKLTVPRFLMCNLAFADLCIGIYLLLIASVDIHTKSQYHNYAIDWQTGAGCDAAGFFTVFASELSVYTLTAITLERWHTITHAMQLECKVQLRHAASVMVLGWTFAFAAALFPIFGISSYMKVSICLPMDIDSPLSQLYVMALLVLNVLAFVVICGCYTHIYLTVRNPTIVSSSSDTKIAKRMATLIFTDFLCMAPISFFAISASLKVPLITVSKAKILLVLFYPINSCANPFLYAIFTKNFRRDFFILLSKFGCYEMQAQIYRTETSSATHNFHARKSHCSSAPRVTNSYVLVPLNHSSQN
Briefly: Intracellular cAMP measurement (HTRF) assay, antagonism of EC70 of hFSH. To be noted: HEK293 cells expressing rFSHR, 1 ng/ml hFSH (EC70), read-out: Class (IC50 to antagonise an EC70 of FSH receptors agonist such as hFSH). The test is classed as cell-based. An excerpt: Intracellular cAMP Measurement Assay
The Intracellular cAMP measurement assay is a functional cell-based assay used to study GPCR function. This method relies on a Time-Resolved Fluorescence (HTRF) assay to measure the cAMP accumulation upon receptor-mediated Gs protein activation in cells expressing recombinant GPCR or in cells from native tissues. In brief, this method is a competitive immunoassay between native cAMP produced by cells and the cAMP labeled with a fluorescent tag. The endogenously produced cAMP competes with exogenous added d2-labelled cAMP for the cAMP binding site on a Eu3+ cryptate labelled anti-cAMP antibody. The d2-labelled cAMP and the Eu^3+ labelled antibody produces a basal fluroresence via HTRF and therefore an intracellular increase in unlabelled cAMP is detected as decrease in this signal. cAMP is one of the most important intracellular mediators. Its concentration in cells can be increased upon binding of many hormones to their receptors. The most studied pathway consists in the release of α-subunit GTP-binding proteins following ligand-receptor interaction, which in turn activates or inhibits the ATP/cAMP conversion function of adenylate cyclase enzyme. cAMP is then involved in many complex regulatory processes such as protein kinase activation or ion channel gating. This method is widely used to study receptor activation of G protein in cells over-expressing GPCRs or in native cells, including FSH receptors expressing cells (Gabriel et al., Assay Drug Dev. Technol., 1, 291-303, 2003).
Transfection and cell culture: The cDNA encoding the rat follicle stimulating hormone receptor (rFSHR), (accession number NM_199237, NCBI Nucleotide database browser) was subcloned into an expression vector containing also the hygromycin resistance gene. Transfection of this vector into HEK293 cells with PolyFect reagent (Qiagen) according to supplier's protocol, and hygromycin treatment allowed selection of antibiotic resistant cells which had integrated stably one or more copies of the plasmid. Positive cellular clones expressing rFSHR were identified in a functional assay measuring cAMP production in cells following stimulation by addition of purified human follicle stimulating hormone (hFSH).
HTRF cAMP assay: On the day of the experiment, cells were detached from the Petri dish and distributed in a low volume, black-walled 384-well plate at a density of 5,000 cells/well in an assay buffer containing 1 mM IBMX to prevent cAMP degradation by cytoplasmic phosphodiesterases. The determination of the cAMP accumulation was performed using an HTRF assay (Trinquet et al., Anal. Biochem., 358, 126-135, 2006). Briefly, cells were incubated for 3 min in the presence of increasing concentrations of negative allosteric modulators (from 1 nM to 60 μM) and then 30 min in the presence of 1 ng/ml of hFSH, an agonist of rat FSH receptor, that has been determined in previous experiments to correspond to the EC70, a concentration that gives 70% of the maximal response of the agonist, and is in accordance with published data (Fox et al., Mol. Endocrin., 15, 378-389, 2001). […] Cells were then lysed by adding the HTRF assay components, the europium cryptate-labeled anti-cAMP antibody, and the XL665-labeled cAMP analog, previously diluted in a HEPES buffer (50 mM, pH 7.0) containing 0.8 M potassium fluoride, 0.2% (w/v) BSA, and 1% (v/v) Triton X-100, a percentage of detergent that ensure complete cell lysis. Assay was then incubated for 1 hr at room temperature, and HTRF signal was measured after excitation at 337 nm, and dual emission at 620 and 665 nm, using a RubyStar fluorimeter (BMG Labtechnologies). Moreover, the fluorescence ratio of an appropriate range of known concentrations of cAMP standards was also included on each assay plate to produce a standard cAMP curve. […]
(In TR-FRET formats the signal depends on donor and acceptor labels being close together.)
On to “1H-Pyrrolo[2,3-b]pyridine-5-carboxylic acid {2-[4-(3,4-dimethoxy-benzoylamino)-phenyl]-2-methyl-propyl}-amide [Example 201]”, for which the concentration for half-maximal inhibition (IC50) lay within 150 to 400 nM.
`COc1ccc(C(=O)Nc2ccc(C(C)(C)CNC(=O)c3ccco3)cc2)cc1OC` [Example 32]: the 50% inhibitory concentration (IC50) was 150 to 400 nM.
With `COc1ccc(C(=O)Nc2ccc(C(C)(C)CNC(=O)c3cnn4ccccc34)cc2)cc1OC` [Example 41], the IC50 was below 150 nM.
Under `COc1ccc(C(=O)Nc2ccc(C(C)(C)CNC(=O)c3ccccn3)cc2)cc1OC` [Example 74] stands 150 to 400 nM.
Under `COc1ccc(C(=O)Nc2ccc(C(C)(C)C#N)c(C)c2)cc1OC` [Example 95, N-[4-(Cyano-dimethyl-methyl)-3-methyl-phenyl]-3,4-dimethoxy-benzamide] stands 150 to 400 nM; under `COc1ccc(C(=O)Nc2ccc(C(C)(C)C#N)c(C(F)(F)F)c2)cc1OC` [Example 99, N-[4-(Cyano-dimethyl-methyl)-3-trifluoromethyl-phenyl]-3,4-dimethoxy-benzamide], 150 to 400 nM; under `COc1ccc(C(=O)Nc2ccc(C(C)(C)CNC(=O)c3c[nH]c4ccccc34)cc2)cc1OC` [Example 101, 1H-Indole-3-carboxylic acid{2-[4-(3,4-dimethoxy-benzoylamino)-phenyl]-2-methyl-propyl}-amide], 150 to 400 nM.
The value for `COc1ccc(C(=O)Nc2cccc(C3(CNC(=O)c4nn(C)c5ccccc45)CCCC3)c2)cc1OC` [Example 102, 1-Methyl-1H-indazole-3-carboxylic acid{1-[3-(3,4-dimethoxy-benzoylamino)-phenyl]-cyclopentylmethyl}-amide] was at least 1000 nM; that for `COc1ccc(C(=O)Nc2ccc(C(C)(C)CNC(=O)c3cn(C(C)=O)c4ccccc34)cc2)cc1OC` [Example 104, 1-Acetyl-1H-indole-3-carboxylic acid{2-[4-(3,4-dimethoxy-benzoylamino)-phenyl]-2-methyl-propyl}-amide] was 400 to 1000 nM.
In the case of `COc1ccc(C(=O)Nc2ccc(C(C)(C)CNC(=O)c3n[nH]c4ccccc34)c(C)c2)cc1OC` [Example 109, 1H-Indazole-3-carboxylic acid{2-[4-(3,4-dimethoxy-benzoylamino)-2-methyl-phenyl]-2-methyl-propyl}-amide], the IC50 lay in the range of 150 to 400 nM.
For the compound `COc1ccc(C(=O)Nc2ccc(C(C)(C)CNC(=O)c3nn(C)c4ccccc34)c(C)c2)cc1OC` [Example 110, 1-Methyl-1H-indazole-3-carboxylic acid{2-[4-(3,4-dimethoxy-benzoylamino)-2-methyl-phenyl]-2-methyl-propyl}-amide], the IC50 lay in the range of 150 to 400 nM.
Under `COc1ccc(C(=O)Nc2ccc(C(C)(C)CNC(=O)c3n[nH]c4ccccc34)c(Cl)c2)cc1OC` [Example 113, 1H-Indazole-3-carboxylic acid{2-[2-chloro-4-(3,4-dimethoxy-benzoylamino)-phenyl]-2-methyl-propyl}-amide] stands 150 to 400 nM.
The value for `COc1ccc(C(=O)Nc2cc(Cl)c(C(C)(C)C#N)c(Cl)c2)cc1OC` [Example 120, N-[3,5-Dichloro-4-(cyano-dimethyl-methyl)-phenyl]-3,4-dimethoxy-benzamide] was 150 to 400 nM.
Take `COc1ccc(C(=O)Nc2ccc(C(C)(C)CNC(=O)c3nn(C)c4ccccc34)c(Cl)c2)cc1OC` [Example 121, 1-Methyl-1H-indazole-3-carboxylic acid{2-[2-chloro-4-(3,4-dimethoxy-benzoylamino)-phenyl]-2-methyl-propyl}-amide]: the half-inhibitory concentration (IC50) is 150 to 400 nM.
Under `COc1ccc(C(=O)Nc2ccc(Cl)c(C(C)(C)C#N)c2)cc1OC` [Example 125, N-[4-Chloro-3-(cyano-dimethyl-methyl)-phenyl]-3,4-dimethoxy-benzamide] stands at least 1000 nM; under `COc1ccc(C(=O)Nc2ccc(C(C)(C)CNC(=O)c3cc(C)[nH]n3)cc2)cc1OC` [Example 127], 400 to 1000 nM; under `COc1ccc(C(=O)Nc2ccc(C(C)(C)C#N)c(-c3cccnc3)c2)cc1OC` [Example 132, N-[4-(Cyano-dimethyl-methyl)-3-pyridin-3-yl-phenyl]-3,4-dimethoxy-benzamide], 150 to 400 nM.
With `CCc1cc(NC(=O)c2ccc(OC)c(OC)c2)ccc1C(C)(C)C#N` [Example 133, N-[4-(Cyano-dimethyl-methyl)-3-ethyl-phenyl]-3,4-dimethoxy-benzamide], the IC50 is below 150 nM.
Under `COc1ccc(C(=O)Nc2ccc(C(C)(C)CNC(=O)c3ccc4[nH]ccc4c3)cc2)cc1OC` [Example 142] stands 150 to 400 nM.
The value for `COc1ccc(C(=O)Nc2ccc(C(C)(C)C#N)c(-c3ccccn3)c2)cc1OC` [Example 183, N-[4-(Cyano-dimethyl-methyl)-3-pyridin-2-yl-phenyl]-3,4-dimethoxy-benzamide] was at least 1000 nM; that for `COc1ccc(C(=O)Nc2ccc(C(C)(C)CNC(=O)c3cnc4ncccn34)cc2)cc1OC` [Example 185] was 400 to 1000 nM; that for `COc1ccc(C(=O)Nc2ccc(C(C)(C)CNC(=O)c3cn4cccnc4n3)cc2)cc1OC` [Example 186] was at least 1000 nM.
The value for `COCCn1cc(C(=O)NCC(C)(C)c2ccc(NC(=O)c3ccc(OC)c(OC)c3)cc2)c2cc(F)ccc21` [Example 191, 5-Fluoro-1-(2-methoxy-ethyl)-1H-indole-3-carboxylic acid {2-[4-(3,4-dimethoxy-benzoylamino)-phenyl]-2-methyl-propyl}-amide] was 150 to 400 nM.
Take `COc1ccc(C(=O)Nc2ccc(C(C)(C)CNC(=O)c3cn(CCCN(C)C)c4ccc(F)cc34)cc2)cc1OC` [Example 192, 1-(3-Dimethylamino-propyl)-5-fluoro-1H-indole-3-carboxylic acid {2-[4-(3,4-dimethoxy-benzoylamino)-phenyl]-2-methyl-propyl}-amide]: the IC50 is at least 1000 nM.
Turning to `COc1ccc(C(=O)Nc2ccc(C(C)(C)CCNC(=O)c3cnc4ccccn34)cc2)cc1OC` [Example 194, Imidazo[1,2-a]pyridine-3-carboxylic acid {3-[4-(3,4-dimethoxy-benzoylamino)-phenyl]-3-methyl-butyl}-amide], the half-inhibitory concentration (IC50) lay in the range of 150 to 400 nM.
The value for `COc1ccc(C(=O)Nc2ccc(C(C)(C)CCNC(=O)c3nc4cccnc4[nH]3)cc2)cc1OC` [Example 196, 3H-Imidazo[4,5-b]pyridine-2-carboxylic acid {3-[4-(3,4-dimethoxy-benzoylamino)-phenyl]-3-methyl-butyl}-amide] was 150 to 400 nM.
